The text below walks through data of PubChem BioAssay AID330 (DTP/NCI, 2004).

“And” between values parts separate entries of the source, which are not always exact repeats. Equal entries are not always repeated. Inconclusive results and toxic doses are left out.

The test system of the experiment is P388 leukemia ip, CD2F1 mice, survival T/C. The experiment in a line: NCI In Vivo Anticancer Drug Screen. Data for tumor model P388 Leukemia (intraperitoneal) in CD2F1 (CDF1) mice. The following applies: endpoint: median survival time, higher = longer survival. The essentials:
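Mice carrying the transplanted tumor received test compound or vehicle. Survival was recorded in each group, and the value is the treated-group measurement divided by that of the vehicle-treated control group.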

The mark [1] stands for this setting: dose: 50.0 mg/kg/injection, schedule: Q01DX009 (ip), vehicle: Klucel (hydroxypropylcellulose) (HPC).

On to `S=c1nc[nH]c2nc[nH]c12`, for which the T/C by setting is: (dose: 9.38 mg/kg/injection, schedule: Q01DX009 (ip), vehicle: alkali diluted with saline) 111 % of control; (dose: 18.8 mg/kg/injection, schedule: Q01DX009 (ip), vehicle: alkali diluted with saline) 105 % of control; (dose: 20.0 mg/kg/injection, schedule: Q01DX005 (ip), vehicle: alkali diluted with saline) 110 % of control; (dose: 20.0 mg/kg/injection, schedule: Q01DX005 (ip), vehicle: other) 108 % of control and 92 % of control; (dose: 20.0 mg/kg/injection, schedule: Q01DX009 (ip), vehicle: alkali diluted with saline) 95 % of control; (dose: 20.0 mg/kg/injection, schedule: Q01DX009 (ip), vehicle: alkali diluted with water) 118 % of control. Besides, the T/C (dose: 20.0 mg/kg/injection, schedule: Q04DX003 (ip), vehicle: other) was 110 % of control; the T/C (dose: 20.0 mg/kg/injection, schedule: Q04DX003 (iv), vehicle: other) is 116 % of control; the T/C (dose: 25.0 mg/kg/injection, schedule: Q01DX005 (ip), vehicle: alkali diluted with saline) was 105 % of control; the T/C (dose: 25.0 mg/kg/injection, schedule: Q01DX005 (ip), vehicle: alkali diluted with water) was 100 % of control; the T/C (dose: 25.0 mg/kg/injection, schedule: Q01DX009 (ip), vehicle: Klucel (hydroxypropylcellulose) (HPC)) is 115 % of control; the T/C (dose: 28.13 mg/kg/injection, schedule: Q04DX003 (ip), vehicle: alkali diluted with saline) is 105 % of control. Also, the T/C reads like this: (dose: 37.5 mg/kg/injection, schedule: Q01DX009 (ip), vehicle: alkali diluted with saline) 110 % of control; (dose: 37.5 mg/kg/injection, schedule: Q04DX003 (ip), vehicle: Klucel (hydroxypropylcellulose) (HPC)) 121 % of control; (dose: 40.0 mg/kg/injection, schedule: Q01DX001 (ip), vehicle: other) 111 % of control; (dose: 40.0 mg/kg/injection, schedule: Q01DX001 (iv), vehicle: other) 100 % of control; (dose: 40.0 mg/kg/injection, schedule: Q01DX005 (ip), vehicle: alkali diluted with saline) 119 % of control; (dose: 40.0 mg/kg/injection, schedule: Q01DX005 (ip), vehicle: other) 107 % of control and 119 % of control. In addition, the T/C runs as follows: (dose: 40.0 mg/kg/injection, schedule: Q01DX009 (ip), vehicle: alkali diluted with saline) 101 % of control and 105 % of control and 97 % of control; (dose: 40.0 mg/kg/injection, schedule: Q01DX009 (ip), vehicle: alkali diluted with water) 86 % of control; (dose: 40.0 mg/kg/injection, schedule: Q04DX003 (ip), vehicle: other) 117 % of control; (dose: 40.0 mg/kg/injection, schedule: Q04DX003 (iv), vehicle: other) 99 % of control; (dose: 50.0 mg/kg/injection, schedule: Q01DX005 (ip), vehicle: alkali diluted with saline) 113 % of control; (dose: 50.0 mg/kg/injection, schedule: Q01DX005 (ip), vehicle: alkali diluted with water) 111 % of control. For the same compound, the T/C (dose: 50.0 mg/kg/injection, schedule: Q01DX005 (ip), vehicle: saline) is 105 % of control; the T/C under setting [1] was 123 % of control; the T/C (dose: 50.0 mg/kg/injection, schedule: Q01DX009 (ip), vehicle: alkali diluted with saline) is 99 % of control and 104 % of control; the T/C (dose: 56.25 mg/kg/injection, schedule: Q04DX003 (ip), vehicle: alkali diluted with saline) is 99 % of control; the T/C (dose: 60.0 mg/kg/injection, schedule: Q01DX009 (ip), vehicle: alkali diluted with saline) was 102 % of control and 113 % of control; the T/C (dose: 75.0 mg/kg/injection, schedule: Q01DX009 (ip), vehicle: alkali diluted with saline) was 117 % of control. Also, the T/C was 117 % of control (dose: 75.0 mg/kg/injection, schedule: Q04DX003 (ip), vehicle: Klucel (hydroxypropylcellulose) (HPC)); 103 % of control (dose: 80.0 mg/kg/injection, schedule: Q01DX001 (iv), vehicle: other); 120 % of control (dose: 80.0 mg/kg/injection, schedule: Q01DX005 (ip), vehicle: alkali diluted with saline); 95 % of control (dose: 80.0 mg/kg/injection, schedule: Q01DX005 (ip), vehicle: other); 95 % of control (dose: 80.0 mg/kg/injection, schedule: Q01DX009 (ip), vehicle: alkali diluted with saline); 104 % of control (dose: 80.0 mg/kg/injection, schedule: Q04DX003 (iv), vehicle: other). Besides, the T/C by setting is: (dose: 100.0 mg/kg/injection, schedule: Q01DX005 (ip), vehicle: alkali diluted with saline) 105 % of control; (dose: 100.0 mg/kg/injection, schedule: Q01DX005 (ip), vehicle: alkali diluted with water) 105 % of control; (dose: 100.0 mg/kg/injection, schedule: Q01DX005 (ip), vehicle: saline) 102 % of control and 108 % of control; (dose: 112.5 mg/kg/injection, schedule: Q04DX003 (ip), vehicle: alkali diluted with saline) 107 % of control; (dose: 150.0 mg/kg/injection, schedule: Q01DX001 (ip), vehicle: alkali diluted with saline) 101 % of control and 107 % of control; (dose: 160.0 mg/kg/injection, schedule: Q01DX001 (iv), vehicle: other) 103 % of control. Besides, the T/C reads like this: (dose: 160.0 mg/kg/injection, schedule: Q01DX005 (ip), vehicle: other) 108 % of control and 112 % of control; (dose: 160.0 mg/kg/injection, schedule: Q01DX009 (ip), vehicle: alkali diluted with saline) 106 % of control; (dose: 200.0 mg/kg/injection, schedule: Q01DX001 (ip), vehicle: alkali diluted with saline) 108 % of control and 111 % of control; (dose: 200.0 mg/kg/injection, schedule: Q01DX005 (ip), vehicle: alkali diluted with water) 86 % of control; (dose: 200.0 mg/kg/injection, schedule: Q01DX005 (ip), vehicle: saline) 100 % of control and 115 % of control and 124 % of control; (dose: 225.0 mg/kg/injection, schedule: Q04DX003 (ip), vehicle: alkali diluted with saline) 98 % of control. For the same compound, the T/C by setting is: (dose: 250.0 mg/kg/injection, schedule: Q01DX001 (ip), vehicle: alkali diluted with saline) 107 % of control; (dose: 250.0 mg/kg/injection, schedule: Q01DX001 (ip), vehicle: saline) 102 % of control; (dose: 300.0 mg/kg/injection, schedule: Q01DX001 (ip), vehicle: alkali diluted with saline) 112 % of control; (dose: 320.0 mg/kg/injection, schedule: Q01DX001 (ip), vehicle: other) 100 % of control; (dose: 320.0 mg/kg/injection, schedule: Q01DX001 (iv), vehicle: other) 108 % of control; (dose: 320.0 mg/kg/injection, schedule: Q04DX003 (iv), vehicle: other) 100 % of control. For the same compound, the T/C (dose: 400.0 mg/kg/injection, schedule: Q01DX005 (ip), vehicle: saline) is 89 % of control; the T/C (dose: 400.0 mg/kg/injection, schedule: Q01DX009 (ip), vehicle: Klucel (hydroxypropylcellulose) (HPC)) is 115 % of control; the T/C (dose: 500.0 mg/kg/injection, schedule: Q01DX001 (ip), vehicle: saline) is 104 % of control; the T/C (dose: 640.0 mg/kg/injection, schedule: Q01DX001 (iv), vehicle: other) was 105 % of control; the T/C (dose: 1000.0 mg/kg/injection, schedule: Q01DX001 (ip), vehicle: saline) was 99 % of control.
As for `COC1C(O)CC(OC2CC(OC3CC(O[C@@H]4C(=O)c5c(cc6cc(OC7CC(OC8CC(O)C(O)C(C)O8)C(O)C(C)O7)c(C)c(O)c6c5O)C[C@H]4[C@H](OC)C(=O)[C@@H](O)[C@@H](C)O)OC(C)C3O)OC(C)C2O)OC1C` (stereo partly specified), the T/C by setting is: (dose: 375.0 micrograms/kg/injection, schedule: Q01DX009 (ip), vehicle: saline) 121 % of control; (dose: 1500.0 micrograms/kg/injection, schedule: Q01DX009 (ip), vehicle: saline) 170 % of control.
`CCSc1nc2ccc(N=C/C=C/c3ccccc3)cc2s1`: the T/C reads like this: under setting [1], 110 % of control; (dose: 100.0 mg/kg/injection, schedule: Q01DX009 (ip), vehicle: Klucel (hydroxypropylcellulose) (HPC)) 98 % of control; (dose: 200.0 mg/kg/injection, schedule: Q01DX009 (ip), vehicle: Klucel (hydroxypropylcellulose) (HPC)) 110 % of control.
As for `COC1(OC)C2CCC1C(Cl)=C2Cl`, the T/C (dose: 3.13 mg/kg/injection, schedule: Q01DX009 (ip), vehicle: saline with Tween-80) is 93 % of control; the T/C (dose: 3.13 mg/kg/injection, schedule: Q01DX009 (ip), vehicle: saline) was 108 % of control; the T/C (dose: 6.25 mg/kg/injection, schedule: Q01DX009 (ip), vehicle: saline with Tween-80) was 108 % of control; the T/C (dose: 6.25 mg/kg/injection, schedule: Q01DX009 (ip), vehicle: saline) was 107 % of control; the T/C (dose: 12.5 mg/kg/injection, schedule: Q01DX009 (ip), vehicle: saline) is 124 % of control.
On to `CC1(C#N)N=C(c2ccccc2)c2ccccc2N1C(=O)Oc1ccccc1` (stereo unspecified), for which the T/C was 98 % of control (dose: 60.0 mg/kg/injection, schedule: Q01DX005 (ip), vehicle: saline with Tween-80) and 98 % of control (dose: 120.0 mg/kg/injection, schedule: Q01DX005 (ip), vehicle: saline with Tween-80).
